Legend:
Test in all cases: viability relative to DMSO control (fraction); higher = less drug effect (more viable cells)
Settings in all cases: 48 h
[1] = system: primary AML patient cells (S089)
Outline: (§1)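 In 384-well plates with compounds pre-plated at five concentrations (one well per concentration), primary mononuclear tumour cells were plated at 4 × 10^4 cells per well. The cells came from blood or bone marrow by Ficoll isolation or from processed lymph node, and were used fresh or cryopreserved. Culture ran for 48 h at 37 °C and 5% CO2 in RPMI-1640 containing penicillin/streptomycin, L-glutamine and human serum. Viability was read as CellTiter-Glo luminescence, normalised to the median of 16 inner DMSO wells.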

[2] = system: primary AML patient cells (S072)
Outline: as §1

[3] = system: primary MCL patient cells (S068)
Outline: as §1

[4] = system: primary T-PLL patient cells (S008)
Outline: as §1

[5] = system: primary FL patient cells (S087)
Outline: as §1

[6] = system: primary AML patient cells (S009)
Outline: as §1

[7] = system: primary AML patient cells (S037)
Outline: as §1

[8] = system: primary MCL patient cells (S053)
Outline: as §1

[9] = system: primary AML patient cells (S091)
Outline: as §1

[10] = system: primary CLL patient cells (S031)
Outline: as §1

[11] = system: primary AML patient cells (S056)
Outline: as §1

[12] = system: primary AML patient cells (S079)
Outline: as §1

[13] = system: primary AML patient cells (S055)
Outline: as §1

[14] = system: primary AML patient cells (S006)
Outline: as §1

[15] = system: primary ALL patient cells (S048)
Outline: as §1

[16] = system: primary FL patient cells (S022)
Outline: as §1

[17] = system: primary MCL patient cells (S041)
Outline: as §1

[18] = system: primary DLBCL patient cells (S082)
Outline: as §1

[19] = system: primary MCL patient cells (S063)
Outline: as §1

[20] = system: primary AML patient cells (S012)
Outline: as §1

C/C=C1\NC(=O)[C@H]2CSSCC/C=C/[C@H](CC(=O)N[C@H](C(C)C)C(=O)N2)OC(=O)[C@H](C(C)C)NC1=O [Romidepsin] showed a viability ([1]; 0.00032 µM) of 0.932, a viability ([1]; 0.0016 µM) of 0.979 and a viability ([1]; 0.008 µM) of 0.302. It also gave a viability ([1]; 0.04 µM) of 0.0361, a viability ([1]; 0.2 µM) of 0.0536 and a viability ([2]; 0.00032 µM) of 0.97. For the same compound, the viability ([2]; 0.0016 µM) was 0.671, the viability ([2]; 0.008 µM) was 0.243 and the viability ([2]; 0.04 µM) was 0.192. It also gave a viability ([2]; 0.2 µM) of 0.187, a viability ([3]; 0.00032 µM) of 0.904 and a viability ([3]; 0.0016 µM) of 0.298. It also gave a viability ([3]; 0.008 µM) of 0.118, a viability ([3]; 0.04 µM) of 0.0914 and a viability ([3]; 0.2 µM) of 0.0996. For the same compound, the viability ([4]; 0.00032 µM) was 1.02, the viability ([4]; 0.0016 µM) was 0.895 and the viability ([4]; 0.008 µM) was 0.738. It also gave a viability ([4]; 0.04 µM) of 0.772, a viability ([4]; 0.2 µM) of 0.758 and a viability ([5]; 0.00032 µM) of 0.978. The viability ([5]; 0.0016 µM) was 0.911, the viability ([5]; 0.008 µM) was 0.642 and the viability ([5]; 0.04 µM) was 0.498. For the same compound, the viability ([5]; 0.2 µM) was 0.527, the viability ([6]; 0.00032 µM) was 1.02 and the viability ([6]; 0.0016 µM) was 0.614. It also gave a viability ([6]; 0.008 µM) of 0.308, a viability ([6]; 0.04 µM) of 0.24 and a viability ([6]; 0.2 µM) of 0.199. The viability ([7]; 0.00032 µM) was 1.06, the viability ([7]; 0.0016 µM) was 0.911 and the viability ([7]; 0.008 µM) was 0.554. For the same compound, the viability ([7]; 0.04 µM) was 0.516, the viability ([7]; 0.2 µM) was 0.508 and the viability ([8]; 0.00032 µM) was 0.951. The viability ([8]; 0.0016 µM) was 0.191, the viability ([8]; 0.008 µM) was 0.0849 and the viability ([8]; 0.04 µM) was 0.0845. The viability ([8]; 0.2 µM) was 0.0907, the viability ([9]; 0.00032 µM) was 0.803 and the viability ([9]; 0.0016 µM) was 0.715. The viability ([9]; 0.008 µM) was 0.169, the viability ([9]; 0.04 µM) was 0.116 and the viability ([9]; 0.2 µM) was 0.117. The viability ([10]; 0.00032 µM) was 1.07, the viability ([10]; 0.0016 µM) was 0.717 and the viability ([10]; 0.008 µM) was 0.0898. For the same compound, the viability ([10]; 0.04 µM) was 0.061, the viability ([10]; 0.2 µM) was 0.0838 and the viability ([11]; 0.00032 µM) was 0.924. For the same compound, the viability ([11]; 0.0016 µM) was 0.89, the viability ([11]; 0.008 µM) was 0.156 and the viability ([11]; 0.04 µM) was 0.0512. The viability ([11]; 0.2 µM) was 0.0574, the viability ([12]; 0.00032 µM) was 0.978 and the viability ([12]; 0.0016 µM) was 0.85. For the same compound, the viability ([12]; 0.008 µM) was 0.269, the viability ([12]; 0.04 µM) was 0.31 and the viability ([12]; 0.2 µM) was 0.304. For the same compound, the viability ([13]; 0.00032 µM) was 0.981, the viability ([13]; 0.0016 µM) was 0.941 and the viability ([13]; 0.008 µM) was 0.524. It also gave a viability ([13]; 0.04 µM) of 0.145, a viability ([13]; 0.2 µM) of 0.072 and a viability ([14]; 0.00032 µM) of 1. The viability ([14]; 0.0016 µM) was 0.911, the viability ([14]; 0.008 µM) was 0.477 and the viability ([14]; 0.04 µM) was 0.127. For the same compound, the viability ([14]; 0.2 µM) was 0.0886, the viability ([15]; 0.00032 µM) was 0.791 and the viability ([15]; 0.0016 µM) was 0.184. It also gave a viability ([15]; 0.008 µM) of 0.0722, a viability ([15]; 0.04 µM) of 0.0497 and a viability ([15]; 0.2 µM) of 0.0502. The viability ([16]; 0.00032 µM) was 0.968, the viability ([16]; 0.0016 µM) was 0.84 and the viability ([16]; 0.008 µM) was 0.543. The viability ([16]; 0.04 µM) was 0.263, the viability ([16]; 0.2 µM) was 0.206 and the viability ([17]; 0.00032 µM) was 0.932. The viability ([17]; 0.0016 µM) was 0.817, the viability ([17]; 0.008 µM) was 0.222 and the viability ([17]; 0.04 µM) was 0.175. It also gave a viability ([17]; 0.2 µM) of 0.194, a viability ([18]; 0.00032 µM) of 1.02 and a viability ([18]; 0.0016 µM) of 0.878. The viability ([18]; 0.008 µM) was 0.111, the viability ([18]; 0.04 µM) was 0.0272 and the viability ([18]; 0.2 µM) was 0.029. It also gave a viability ([19]; 0.00032 µM) of 0.923, a viability ([19]; 0.0016 µM) of 0.968 and a viability ([19]; 0.008 µM) of 0.0338. For the same compound, the viability ([19]; 0.04 µM) was 0.0187, the viability ([19]; 0.2 µM) was 0.0209 and the viability ([20]; 0.00032 µM) was 1.1. It also gave a viability ([20]; 0.0016 µM) of 1.01, a viability ([20]; 0.008 µM) of 0.722 and a viability ([20]; 0.04 µM) of 0.0806. For the same compound, the viability ([20]; 0.2 µM) was 0.0665.
Oc1ccc(/C=C/c2cc(O)cc(O)c2)cc1 [Resveratrol] showed a viability ([1]; 0.024 µM) of 0.819, a viability ([1]; 0.12 µM) of 0.652 and a viability ([1]; 0.6 µM) of 0.672. It also gave a viability ([1]; 3 µM) of 0.53, a viability ([1]; 15 µM) of 0.549 and a viability ([2]; 0.024 µM) of 1.07. The viability ([2]; 0.12 µM) was 0.797, the viability ([2]; 0.6 µM) was 0.816 and the viability ([2]; 3 µM) was 0.798. It also gave a viability ([2]; 15 µM) of 0.687, a viability ([3]; 0.024 µM) of 0.614 and a viability ([3]; 0.12 µM) of 0.63. For the same compound, the viability ([3]; 0.6 µM) was 0.639, the viability ([3]; 3 µM) was 0.7 and the viability ([3]; 15 µM) was 1.16. For the same compound, the viability ([4]; 0.024 µM) was 1, the viability ([4]; 0.12 µM) was 1.02 and the viability ([4]; 0.6 µM) was 0.915. The viability ([4]; 3 µM) was 0.966, the viability ([4]; 15 µM) was 0.897 and the viability ([5]; 0.024 µM) was 0.804. It also gave a viability ([5]; 0.12 µM) of 0.857, a viability ([5]; 0.6 µM) of 0.803 and a viability ([5]; 3 µM) of 0.877. For the same compound, the viability ([5]; 15 µM) was 0.815, the viability ([6]; 0.024 µM) was 0.782 and the viability ([6]; 0.12 µM) was 0.815. It also gave a viability ([6]; 0.6 µM) of 0.815, a viability ([6]; 3 µM) of 0.789 and a viability ([6]; 15 µM) of 0.683. The viability ([7]; 0.024 µM) was 0.792, the viability ([7]; 0.12 µM) was 0.994 and the viability ([7]; 0.6 µM) was 0.881. For the same compound, the viability ([7]; 3 µM) was 0.84, the viability ([7]; 15 µM) was 0.96 and the viability ([8]; 0.024 µM) was 0.75. The viability ([8]; 0.12 µM) was 0.671, the viability ([8]; 0.6 µM) was 0.595 and the viability ([8]; 3 µM) was 0.686. The viability ([8]; 15 µM) was 0.772, the viability ([9]; 0.024 µM) was 0.863 and the viability ([9]; 0.12 µM) was 0.832. For the same compound, the viability ([9]; 0.6 µM) was 0.868, the viability ([9]; 3 µM) was 0.708 and the viability ([9]; 15 µM) was 0.553. For the same compound, the viability ([10]; 0.024 µM) was 0.761, the viability ([10]; 0.12 µM) was 0.766 and the viability ([10]; 0.6 µM) was 0.744. For the same compound, the viability ([10]; 3 µM) was 0.67, the viability ([10]; 15 µM) was 0.553 and the viability ([11]; 0.024 µM) was 0.714. It also gave a viability ([11]; 0.12 µM) of 0.966, a viability ([11]; 0.6 µM) of 0.645 and a viability ([11]; 3 µM) of 0.596. For the same compound, the viability ([11]; 15 µM) was 0.466, the viability ([12]; 0.024 µM) was 0.838 and the viability ([12]; 0.12 µM) was 0.767. The viability ([12]; 0.6 µM) was 0.792, the viability ([12]; 3 µM) was 0.718 and the viability ([12]; 15 µM) was 0.736. The viability ([13]; 0.024 µM) was 0.867, the viability ([13]; 0.12 µM) was 0.931 and the viability ([13]; 0.6 µM) was 0.888. For the same compound, the viability ([13]; 3 µM) was 0.83, the viability ([13]; 15 µM) was 0.851 and the viability ([14]; 0.024 µM) was 0.862. It also gave a viability ([14]; 0.12 µM) of 0.866, a viability ([14]; 0.6 µM) of 0.845 and a viability ([14]; 3 µM) of 0.872. The viability ([14]; 15 µM) was 0.804, the viability ([15]; 0.024 µM) was 0.621 and the viability ([15]; 0.12 µM) was 0.574. The viability ([15]; 0.6 µM) was 0.479, the viability ([15]; 3 µM) was 0.637 and the viability ([15]; 15 µM) was 0.681. It also gave a viability ([16]; 0.024 µM) of 0.832, a viability ([16]; 0.12 µM) of 0.823 and a viability ([16]; 0.6 µM) of 0.784. It also gave a viability ([16]; 3 µM) of 0.847, a viability ([16]; 15 µM) of 0.811 and a viability ([17]; 0.024 µM) of 0.948. For the same compound, the viability ([17]; 0.12 µM) was 0.904, the viability ([17]; 0.6 µM) was 0.904 and the viability ([17]; 3 µM) was 0.896. The viability ([17]; 15 µM) was 0.77, the viability ([18]; 0.024 µM) was 0.79 and the viability ([18]; 0.12 µM) was 0.776. For the same compound, the viability ([18]; 0.6 µM) was 0.828, the viability ([18]; 3 µM) was 0.871 and the viability ([18]; 15 µM) was 0.954. It also gave a viability ([19]; 0.024 µM) of 0.862, a viability ([19]; 0.12 µM) of 0.858 and a viability ([19]; 0.6 µM) of 0.863. The viability ([19]; 3 µM) was 0.854, the viability ([19]; 15 µM) was 0.825 and the viability ([20]; 0.024 µM) was 0.981. The viability ([20]; 0.12 µM) was 1.02, the viability ([20]; 0.6 µM) was 0.972 and the viability ([20]; 3 µM) was 0.957. For the same compound, the viability ([20]; 15 µM) was 0.986.

From the supplement of paper PMC10733146
